Laboratory results published in the NIST ThermoML archive (doi:10.1021/je2001649).
± gives the expanded uncertainty stated by the source.

Conditions: Crystal; visual observation

Structure (SMILES): c1ccc2c(c1)Nc1ccccc1S2 [10H-phenothiazine]
- Normal melting temperature: 183 ± 1 °C
